Assay results as given in US20240210394A1, “MICROORGANISM CAPTURE FROM ANTIMICROBIAL-CONTAINING SOLUTION” (MOMENTUM BIOSCIENCE LIMITED, priority 2019, published 2024).

Test system: S. aureus
Experiment: Total viable count (TVC) plate counts of spiked samples (T0/T2)
Format: cell-based
Conditions: for TVC T2: 100 μL plated after 2 h at 37° C.; for TVC T0: 100 μL plated at time 0
Description: Test dilution(s) of organism was added to blood+antibiotic or blood only at 10 μL per mL of blood (sufficient prepared for experiment requirements). 100 μL plate count sample was taken (TO sample).
The inoculated samples were incubated at 37° C. (static) for 2-hour. 100 μL plate count sample was taken (T2 sample).
For the ‘rescue’ test, 5 mL of spiked blood+abx or blood only was treated with Momentum Capture Beads (Streptavidin-coated, −300 nm beads, Bio estapor, Merk Cat #BE-M 08/0.3) as below: • Momentum Capture Beads diluted in Detergent-free Microbial Binding Buffer (DMBB—Tris+NaCl)—50 μL beads:700 μL DMBB per clean-up • 750 μL of diluted beads added to 50 mL conical centrifuge tube • 5 mL of broth medium added to tube • 5 mL of spiked blood+abx or blood only added to tube • Incubate on ITL TherMix (Integrated Technologies Ltd. Kent, UK), 32.5° C./30 min/1000 rpm—ramped speed protocol • Magnetise on V&P magnet (V&P scientific Inc, CA, US) for 5 min then remove supernatant • Resuspend beads in 1 mL Detergent-free Wash Buffer (DWB—Tris+NaCl) off magnet and transfer to 2 mL Eppendorf flip-top tube on DynaMag-2 magnet (Thermo Fisher Scientific, Life Technologies Ltd. Paisley, UK) • Magnetise for 5 min then remove supernatant • Resuspend beads in 1 mL DWB off magnet then replace on DynaMag-2 magnet • Magnetise for 5 min then remove supernatant • Resuspend beads in 1 mL DWB, add to a fresh, unused blood culture bottle (BioMerieux SA culture bottle) containing standard blood culture growth medium using a vial adapter, and start incubation (adapter removed). • Blood culture bottles are incubated in the automated blood culture cabinet (BacT/ALERT BioMerieux) which records time to positivity. The “Flip” time is when a bottle turns positive as determined by the automated blood culture cabinet. • “Flip” time of each bottle is recorded. • Plate counts (Total Viable Count TVC) are recorded.
Day 2: Prepare ten-fold serial dilution of overnight culture in blood/broth as required • Antibiotic added to whole blood (defibrinated horse blood) at required level • Whole blood as no-antibiotic control • Test dilution(s) of organism added to blood+antibiotic or blood only at 10 μL per mL of blood (sufficient prepared for experiment requirements) • 100 μL plate count sample taken (TO sample) • 2-hour incubation at 37° C. (static), to mimic organism exposure to antimicrobials in the patient • 100 μL plate count sample taken (T2 sample) • 5 mL of spiked blood+abx or blood only added to blood culture bottle (using vial adapter) and incubation started (adapter removed) • 5 mL of spiked blood+abx or blood only (from same source) treated with Momentum Capture Beads as below: • 1. […]
Day 3: Plate counts recorded. […]

[1] = S. aureus spike dil 10-3 in blood + Piperacillin 96 ug/ml
[2] = S. aureus spike dil 10-4 in blood + Piperacillin 96 ug/ml

CCN1CCN(C(=O)N[C@@H](C(=O)N[C@@H]2C(=O)N3[C@@H]2SC(C)(C)[C@@H]3C(=O)O)c2ccccc2)C(=O)C1=O [Piperacillin]
TVC T2 [1]: 2
TVC T0 [1]: 98
TVC T2 [2]: 0
TVC T0 [2]: 15
